Test results from publication PMC6614837 (Nucleic Acids Research, 2019).
“Also recorded” adds a separate entry of the source.

Tests used:
[1] = test system: P RNA; assay: Gel-based activity assay, bipartite pre-tRNA substrate, P RNA alone; assay type: biochemical, T. maritima; conditions: 100 mM AmOAc, 10 mM MgCl2
Protocol: For gel-based activity assays, reactions were prepared as described in the previous section (fluorescence activity assay), incubated for 1–15 min at 37–50°C, then loaded onto a denaturing 7 M urea–20% acrylamide gel in the case of the Mh substrate or 19% acrylamide (40% acrylamide/bisacrylamide 38.5:1.5) for the bipartite pre-tRNA substrate. The activity conditions for the gel reported in Figure 3A, to monitor the cleavage of the holoenzyme and P RNA, were under 100 mM AmOAc and 10 mM MgCl2. The gels (13 × 16 × 0.15 cm) were electrophoresed at 20 V/cm for 2–3 h. UV shadowing or ethidium bromide staining was used to visualize RNA cleavage. Detection of minihelix fluorescence was achieved without staining using a UV lamp with excitation at ∼254 nm.
Figure 3. The inhibitors purpurin and hematein bind to the holoenzyme. (A) Top. […] Bottom. […] (B) The relative affinities of the inhibitors for the P RNA or the holoenzyme differ. Binding sensorgrams obtained by biolayer interferometry (BLI). P RNA or RNase P holoenzyme was immobilized on super streptavidin (SSA) biosensors through a 5′-biotinylated RNA oligonucleotide complementary to a region on the P1 stem of P RNA (see Materials and Methods). […] In contrast, gentian violet binds not only to P RNA but also to the Mh substrate (Supplementary Figure S16). (C) Molecular Dynamics (MD) simulations of RNase P protein in complex with the validated inhibitors. In each panel, semitransparent spheres represent the geometric center, over a 200 ns trajectory, of the corresponding tested compound. The 5′-leader (yellow) is shown for reference purposes only; it was not included in the simulation. Sphere color coding indicates the starting and final positions in blue and red, respectively. […] Purpurin's starting conformation corresponds to that observed in the crystal structure in complex with the P protein (PDB code: 6MAX. See Figure 5).

[2] = target: T1, RNase P holoenzyme (Thermotoga maritima, UniProt Q9X1H4); assay: Displacement of pre-tRNA from the holoenzyme (BLI); assay type: binding, T. maritima; conditions: holoenzyme on Ni-NTA biosensors, compound 0–400 μM, then pre-tRNA
T1 construct: GST (cleaved yes); made in house; host or cells: E. coli BL21(DE3)pLysS
T1 sequence (Q9X1H4 1-117): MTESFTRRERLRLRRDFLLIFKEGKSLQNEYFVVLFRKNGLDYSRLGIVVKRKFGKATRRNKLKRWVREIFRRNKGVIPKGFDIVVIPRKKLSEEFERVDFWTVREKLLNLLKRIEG
Protocol: Real-time binding assays of the holoenzyme, P RNA, P protein, the substrate minihelix and the 5′-leader to individual compounds were performed by biolayer interferometry using an Octet RED96 system (ForteBio). For the holoenzyme or P RNA, a 5′ biotinylated RNA oligonucleotide with the sequence 5′biotin-CAUUCCAGACGAU was immobilized on Super Streptavidin (SSA) biosensors. Then, a modified P RNA or holoenzyme was added. The P RNA modification consisted of a sequence with part of the P1 stem sequence complementary to the biotinylated oligonucleotide (AUCGUCUGGA) (Supplementary Figure S23A). P1 is far from the active site or other regions involved in specific interactions (Supplementary Figure S23B) ([19]). The activity of this construct was indistinguishable from the wild-type holoenzyme. Alternatively, the holoenzyme was immobilized through the His-tagged P protein from T. maritima at 0.05 mg/ml (3.4 μM) on Ni-NTA biosensors. Control biosensors were used to subtract non-specific binding of compounds to the biosensor surface. All assay steps (immobilization, wash, baseline, association, and dissociation) were performed in 20 mM HEPES pH 7.4, 100 mM ammonium acetate, 10 mM MgCl2, 2.5% DMSO. The assays were performed on black bottom 96-well microplates (Greiner Bio-One 655209) in a total volume of 200 μl, at 30°C with orbital shaking at 1000 rpm. Experiments were controlled with the software Data Acquisition 8.2 (ForteBio, Inc.). Kinetic binding parameters were calculated using Data Analysis 8.2 (ForteBio, Inc.). After subtraction of reference biosensors, the binding curves were aligned to the X- and Y-axis and the association-dissociation inter-step curve in order to get a common baseline for the association and dissociation phases.
Figure 4. Characterization of the inhibition of T. maritima RNase P by purpurin. (A) Best global fit for inhibition of RNase P in the presence of varying concentrations of fluorescent Mh substrate. […] Symbols represent the mean ± standard error as determined from three independent experiments at each concentration. See also Supplementary Figure S18. […] Binding sensorgrams obtained by biolayer interferometry (BLI). RNase P holoenzyme at 400 nM was immobilized on Ni-NTA. […] Binding sensorgrams obtained by biolayer interferometry (BLI). RNase P holoenzyme was immobilized on Ni-NTA biosensors, incubated with purpurin at varying concentrations (0–400 μM), and then the association and dissociation pre-tRNA was monitored. […] See also Supplementary Figure S17.

[3] = target: T2, P protein (Thermotoga maritima, UniProt Q9X1H4); assay: Binding hindrance of the 5′ RNA leader to the P protein (BLI); parameters: species or system T. maritima; conditions: compound 100 μM, 5′ RNA leader 5 μM
T2 construct: GST (cleaved yes); made in house; host or cells: E. coli BL21(DE3)pLysS
T2 sequence (Q9X1H4 1-117): T1 sequence (Q9X1H4 1-117)
Protocol: A 5′ RNA leader sequence with 10-bases 5′-GGAAAAAGAU-3′ was purchased from IDT and used at a concentration of 5 μM. This sequence is the same used to obtain the crystal structure of the RNase P holoenzyme ([19]). The His-tagged P protein was immobilized on Ni-NTA biosensors at 0.05 mg/ml (3.4 μM). […] The steps performed on the assay and their periods were: P protein immobilization (400 s), wash (100 s), baseline […] (1000 rpm), compound association (800 s), compound dissociation (200 s) (500 rpm), baseline (100 s), 5′ leader association (200 s), 5′ leader dissociation (200 s) (1000 rpm). The assay was performed at 30°C. The compounds were used at 100 μM throughout. All assay steps were performed in 20 mM HEPES pH 7.4, 100 mM ammonium acetate, 10 mM MgCl2, 5% DMSO.
5 ′ RNA leader. (A) Experimental design of 5′ RNA leader binding hindrance experiments. Figures B-F are based on the analysis region depicted in panel A, where association and dissociation of the 5′ RNA leader to the P protein (TmP) is measured over time. P protein at 3.5 µM was immobilized on Ni-NTA biosensors for 300 s, while compounds were assayed at 100 µM and the […]
binding, in contrast with hematein (E) and purpurin (F).
(1 picture or pasted object on this page, not shown here)

Row | Compound | Inhibition of the P RNA reaction [1] | Dose–response displacement of pre-tRNA [2] | Hindrance of 5′ RNA leader binding to the P protein [3] | Hindrance of 5′ RNA leader binding to the P protein ([3]; listed as hematein) | Hindrance of 5′ RNA leader binding to the P protein ([3]; listed as purpurin)
1 | O=C1C=C2CC3(O)COc4c(ccc(O)c4O)C3=C2C=C1O (centres unmarked) [Hematein, 3,4,6a,10-tetrahydroxy-6a,7-dihydroindeno[2,1-c]chromen-9(6H)-one] | not the P RNA alone | No | hinder the binding of the P protein | displayed leader-binding hindrance | –
2 | O=C1C=CC(=O)c2c(O)cccc21 [Juglone, 5-hydroxy-1,4-naphthoquinone] | less clear behavior | No | do not impede the leader binding | – | –
3 | O=C1c2ccccc2C(=O)c2c(O)c(O)cc(O)c21 [Purpurin, 1,2,4-trihydroxyanthraquinone] | not the P RNA alone | displaces bound pre-tRNA in a dose-response behavior and Yes | hinders the binding of the P protein to the 5′ RNA leader | – | hinder the binding of the P protein; also recorded: interferes with the binding of the leader to the P protein
